Reference: a melting point compilation (Tetko et al.; mined from patent text by program, amines drawn as free bases though some values may be those of a salt)

SMILES | melting point
O=c1[nH]c2ccc(O)cc2[nH]1 | 186 to 187 °C
CCCCCCCCNC(=O)N1CCC(Oc2ccc(CCNC[C@H](O)COc3ccc(O)cc3)cc2)CC1 | 79 to 81 °C
O=C(c1ccccc1)c1ccc([N+](=O)[O-])c(C(=O)O)c1 | 169 °C
COC(=O)c1n[nH]c(C(C)C)c1[N+](=O)[O-] | 78 to 80 °C
O=C1NC[C@@H](C(=O)NCCO[N+](=O)[O-])O1 | 101 to 103 °C
CN1CCOc2cc(O)c(C3(O)C(=O)N(Cc4ccc(C(F)(F)F)o4)c4ccccc43)cc21 (stereo not drawn) | 184 to 186 °C
O=C(CCC(=O)N1CCC(c2ccc(Cl)cc2)CC1)c1ccc2c(c1)CCN(CC1CCCCC1)CC2 | 140 to 141 °C
O=C1c2ccccc2C(=O)N1CC(=O)N1c2ccccc2N(Cc2ccccc2)C(=O)C(Cc2ccccc2)C1C(F)(F)F (stereo not drawn) | 262 to 263 °C
CCOCc1nc2c(N)nc3cc(OCc4csc(-c5cccs5)n4)ccc3c2n1CC(C)(C)O | 192 to 194 °C
CN(C(=O)OCc1ccccc1)[C@H]1CNc2ccccc2C1 | 80 °C
COc1ccc(N2CCN(c3ccc(N4C(=O)N(C(C)C(C)=O)C(C)(C)C4=O)cc3)CC2)cc1 (stereo not drawn) | 226 °C
O=S(=O)(Nc1ccc(Oc2ccc3ncccc3c2)cc1)c1cccc(C(F)(F)F)c1 | 142 to 143 °C
COc1ccc(-n2cnc3ccc(-c4nnc(SCc5cccc(C#N)c5)o4)cc32)cc1 | 157 to 158 °C
CCOC(=N)C1(O)CCCc2ccccc21 (stereo not drawn) | 84 to 86 °C
COc1cc(COc2cc(Cn3cncn3)n(-c3ccccc3)n2)ccc1OCc1nc(-c2ccco2)oc1C | 95 to 96 °C
CC(=O)C1(Nc2ccc(C)cc2)CCN(CCc2ccccc2)CC1 | 134 °C
COC(=O)C(Oc1cc(OCc2ccc3ncoc3c2)ccc1C#N)c1ccccc1C (racemic) | 157 to 159 °C
COC(=O)c1cnc2c3cc(NC(=O)CC(C)(C)C)ccc3ncn2c1=O | 247 to 249 °C
Cc1ccc(OCC(O)CNC(C)C)c([N+](=O)[O-])c1[N+](=O)[O-] (stereo not drawn) | 122 to 124 °C
O=C1c2ccc(Nc3ccc(F)cc3F)cc2CCc2cc(OCCO)ccc21 | 138 °C
Cc1ncc(-c2ccccc2)c(C(=O)N(C)Cc2cc(C(F)(F)F)cc(C(F)(F)F)c2)n1 | 149 to 152 °C
CCCCCC(O)CCN1C(=O)NC(=O)C1CCCCCCC(=O)O (stereo not drawn) | 63 to 65 °C
CCn1c2ccc(C=O)cc2c2c3ccccc3ccc21 | 143 to 144 °C
C[Si](C)(C)c1ccc(-c2nccc3ccccc23)cc1 | 93.5 °C
CC(=O)Oc1cccc2sc(-c3ccc(C(=O)O)cc3)nc12 | 229 to 233 °C
COc1ccc(C=O)c(F)c1OC | 52 to 54 °C

SMILES | melting point
COC(=O)[C@H](Cc1ccccc1)NC(=O)c1ccc(N)cc1 | 145 to 146 °C
Cn1c(C(F)(F)F)cc(=O)n(-c2cc(OCSc3ccc(Cl)cc3)c(Cl)cc2F)c1=O | 141 to 142 °C
O=C(Cl)Oc1c(CCl)cccc1CCl | 71.5 to 73.5 °C
Nc1ccc(S(=O)(=O)c2cc(C3=CCCCC3)nc(N3CCCC3)c2)cc1 | 237 to 238 °C
Cc1cc2c(ccc3ccsc32)c2ccccc12 | 130 to 131 °C
CC(C)COc1ccc(F)cc1OCCOS(C)(=O)=O | 53 to 55 °C
COc1ccc(S(=O)(=O)N(Cc2cccnc2)c2c(C(=O)NO)cnc3c2c(C)nn3C)cc1 | 202 to 204 °C
N=C(N)c1nc2c(s1)CCc1c-2sc2nc3ccccc3n12 | > 300 °C
CCCCc1nc2c(N)nc3cccnc3c2n1CCCCNC(=O)CSc1ccncc1 | 128 to 129 °C
CCCCC(CNC(C)=O)(Cn1cncn1)c1ccccc1 (stereo not drawn) | 112 to 115 °C
C#CCOc1ccc2c(c1)c(-c1ccc(C(C)C)cc1)nc(=O)n2Cc1cccc(O)c1 | 230 °C
O=C(c1ccc([N+](=O)[O-])cc1Cl)N1CCCCc2sccc21 | 131 to 134 °C
O=C1C(=O)N(CCN2CCN(Cc3ccc(F)cc3)CC2)c2ccccc21 | 146 to 147 °C
Nc1ccc(C(=O)c2cccc(F)c2)cc1 | 98 to 100 °C
Cc1cc(C)c(/C=C/C2OCC(C)(C)CO2)c(Br)c1 | 54 to 56 °C
O=C(Cl)c1ccc(C#Cc2ccccc2F)o1 | 96 to 98 °C
Cc1ccc(-n2cccc2C=O)c(Cl)c1 | 111 to 112 °C
COCCn1nc2c(N)nc3ccccc3c2c1CC(C)(C)C(N)=O | 225 to 226 °C
CCOC1=Nc2ccc(Cl)cc2C(c2ccccc2Cl)=NC1OC (stereo not drawn) | 110 to 113 °C
Clc1ccc(N2CCC3(CCNCC3)CC2)cc1 | 95.5 to 97.4 °C
Cc1ccc(C2(O)C(c3ccccc3)SC3=NCCCCN32)s1 (stereo not drawn) | 70 to 90 °C
CC1=Cc2cc(-c3nnn[nH]3)ccc2OC1(C)C | 179 to 181 °C
Cc1cc(-c2cccc(C(F)(F)F)c2)c2ncc(C(F)(F)F)nc2c1 | 93 to 94 °C
CN1C(=O)C(c2ccccc2)(C23CC4CC(CC(C4)C2)C3)N=C1N (stereo not drawn) | 250 °C
CN1C(=O)COc2cc(S(=O)Cc3ccccc3)ccc21 (stereo not drawn) | 133 to 135 °C
Cc1ccc(C(=O)NN=C(N)CS(=O)(=O)c2ccccc2)o1 | 219 to 220 °C

SMILES | melting point
Cc1cccc2c(-c3ccc(Br)cc3)nccc12 | 126 to 128 °C
O=C(c1cccc2cc[nH]c12)N1CCN(c2ccc(F)cc2)CC1 | 222 to 224 °C
COC(=O)c1ccc2ncn(-c3ccc(OC)cc3)c2c1 | 112 to 113 °C
c1cncc(CN2CCN(CCCCc3c[nH]c4ccc(-n5cnnc5)cc34)CC2)c1 | 110 to 112 °C
CCOC(=O)Cc1nccc(NC=O)n1 | 80 to 93 °C
O=C(O)c1cn(C2COC2)c2cc(N3CCNCC3)c(F)c(O)c2c1=O | 266 to 273 °C
Cc1c(C)c(S(=O)(=O)C[N+](=O)[O-])c(C)c2c1OCCC2 | 104 to 106 °C
CC(=O)NCC1CC1c1c(-c2cccnc2)ccc2nn(C)cc12 (stereo not drawn) | 136 to 138 °C
COC(=O)COc1ccc2cc(-c3cnc(Cc4ccccc4)o3)ccc2c1 | 236 to 238 °C
Cc1cn(C(C)C(=O)N(C)c2ccccc2)nc1-c1ccccc1 (stereo not drawn) | 112 to 114 °C
COc1ccc2c(=O)cc(-c3cc[nH]n3)oc2c1 | 170 to 171 °C
CN(C)CCCC(C(=O)O)c1ccccc1-c1ccccc1 (stereo not drawn) | 192 to 194 °C
CCCCS(=O)(=O)NC1Cc2ccccc2C1 | 60 to 62 °C
CCCOc1nc2sc(Cl)cc2c(=NC(=O)OC)n1CCC | 65 to 67 °C
COc1ccc2ncc(CC(N)C(=O)O)cc2c1 (stereo not drawn) | 246 to 247 °C
Cc1c(C#N)sc2nc(CCCc3ccccc3)nc(N3CCN(C)CC3)c12 | 101 to 103 °C
CN(O)C(=O)Cc1ccccc1Nc1c(Cl)cccc1Cl | 135 to 138 °C
CC(C)(C)CNc1cc(Cl)nc(N2CCCC2)n1 | 130 to 135 °C
CCC(COC)Nc1nc(C)nc(N2CCc3cc(OC)cc(Cl)c32)c1I (stereo not drawn) | 150 to 152 °C
N#CC1CCc2c(OCCn3ccnc3)cccc21 (stereo not drawn) | 115 to 117 °C
CCCCCC[C@H](C)Oc1ccc(-c2ccc(O)cc2)cc1 | 100 °C
O=c1cc(-c2ccccc2F)oc2ccccc12 | 98 to 100 °C
COC(=O)CC1CCc2cc(OC)ccc2C1=O (stereo not drawn) | 110 to 112 °C
COCC1CN(c2ccc(OCCC(C)O)cc2)C(=O)O1 (stereo not drawn) | 58 °C
C#Cc1ccc2c(c1)C1(c3ccccc3-c3ccccc31)c1ccccc1-2 | 169 to 170 °C
CCOC(=O)C1=C(C)N(C)C(C)=C(C(=O)OC(C)C)C1c1cccc([N+](=O)[O-])c1 (stereo not drawn) | 100 to 101 °C

SMILES | melting point
Oc1ncnc2c(F)ccc(F)c12 | 257 to 258 °C
CNC1Oc2cc(Cl)cc(-c3ccc(Cl)cc3C)c2O1 (stereo not drawn) | > 250 °C
Oc1ccc(-n2nc3ccc(Cl)cc3n2)c(O)c1 | 188 to 189 °C
Cc1cc(C)c(C2C(=O)N3CCOCCN3C2=O)c(C)c1 | 248 to 250 °C
CC(C)(C)c1cc(CCc2ccccc2NC(=O)NC2CCN(Cc3ccc(F)c(F)c3)CC2)cc(C(C)(C)C)c1O | 155 to 156 °C
COc1ccc(CC[C@H]2CNCCN2)cc1 | 125 to 130 °C
COC(=O)C(c1ccccc1)C1CCN(c2ccc(NC(=O)c3ccccc3-c3ccc(C(F)(F)F)cc3)cc2)CC1 (stereo not drawn) | 151 °C
COCCCOc1ccc(CCC(=O)O)c(Oc2ncc(C(F)(F)F)cc2Cl)c1 | 99.1 to 99.2 °C
C[Si](C)(C)c1c(C#N)c(C(F)(F)F)nn1-c1c(Cl)cc(C(F)(F)F)cc1Cl | 108 to 110 °C
O=[N+]([O-])c1cnn2c(-c3cccc(C(F)(F)F)c3)ccnc12 | 159 to 161 °C
NC(=O)c1c(N)cccc1OCCOc1ccccc1 | 127 to 130 °C
FC(F)(F)c1cccc(CSc2nc3cnccc3[nH]2)c1 | 148 to 150 °C
CCCC(=Cc1ccsc1)[N+](=O)[O-] | 52 to 54.5 °C
COc1cc(C(=O)O)ccc1Cc1c(Cl)n(C)c2cc(Cl)c(CC(C)NC(=O)N(C)C)cc12 (stereo not drawn) | 125 to 135 °C
Cc1nn(CCCCO)c(-c2ccc(F)cc2)c1-c1ccc2c(c1)NC(=O)CO2 | 194 to 196 °C
O=C(O)c1ccc(CNC(=O)C2Cc3ccccc3N2S(=O)(=O)c2ccc(-c3ccc(F)cc3F)cc2)cc1 (stereo not drawn) | 115 °C
Cc1oc(-c2ccc(C(F)(F)F)cc2)nc1CO | 98 to 99 °C
COC(=O)C1CCC(c2csc(NC(=N)N)n2)C1 (stereo not drawn) | 124 to 126 °C
CN(C)C(=O)N(C)c1nnc(C(C)(C)C#N)s1 | 92 to 94 °C
O=C1c2cccc3cccc(c23)C1Br (stereo not drawn) | 100 to 105 °C
C[C@H](C/C=C/C=C/C(C)(C)O)[C@H]1CC[C@H]2[C@@H](O)CCC[C@]12C | 110 to 112 °C
CN(C)C(=CC(=O)C(F)(F)F)NCc1ccc(Cl)nc1 | 85 °C
COc1nc(-n2ncc(C#N)c2N)c(Cl)cc1C(F)(F)F | 135 to 139 °C
C#CC[C@H](c1nc2cc(Cl)ccc2c(=O)n1Nc1ccccc1)N(CCCN)C(=O)c1cccc(Cl)c1F | 101 to 103 °C
O=S(=O)(CC(F)(F)F)c1nc2ccccc2[nH]1 | 172 to 174 °C
